# According to patent publication US20240058315A1, “Pyridine and Pyrazine derivative for the Treatment of CF, COPD, and Bronchiectasis” (NOVARTIS AG, priority 2019, published 2024):
# pEC50: −log10 of the molar value.
# Columns and labels:
# [1] = Pharmacokinetics of Compound A (half-life, trough/AUC relation); type: in vivo
# [2] = system: CYP3A4/5; assay: Time dependent inhibition and induction of CYP3A4/5; type: in vitro ADME
# [3] = system: CYP2B6; assay: Induction of CYP2B6; type: in vitro ADME
# [4] = molecular target: ΔF508-CFTR (Homo sapiens (Human), UniProt P13569, DEL508-508); assay: CFTR potentiator assays (membrane potential, IonWorks Quattro, Ussing chamber ion transport); type: cell-based; details: CFTR EC50 in 'the data measurements described above'; which of the potentiator assays is not stated
# Chain of ΔF508-CFTR (P13569 other isoform, or with tags, fused parts or gaps del F508-F508): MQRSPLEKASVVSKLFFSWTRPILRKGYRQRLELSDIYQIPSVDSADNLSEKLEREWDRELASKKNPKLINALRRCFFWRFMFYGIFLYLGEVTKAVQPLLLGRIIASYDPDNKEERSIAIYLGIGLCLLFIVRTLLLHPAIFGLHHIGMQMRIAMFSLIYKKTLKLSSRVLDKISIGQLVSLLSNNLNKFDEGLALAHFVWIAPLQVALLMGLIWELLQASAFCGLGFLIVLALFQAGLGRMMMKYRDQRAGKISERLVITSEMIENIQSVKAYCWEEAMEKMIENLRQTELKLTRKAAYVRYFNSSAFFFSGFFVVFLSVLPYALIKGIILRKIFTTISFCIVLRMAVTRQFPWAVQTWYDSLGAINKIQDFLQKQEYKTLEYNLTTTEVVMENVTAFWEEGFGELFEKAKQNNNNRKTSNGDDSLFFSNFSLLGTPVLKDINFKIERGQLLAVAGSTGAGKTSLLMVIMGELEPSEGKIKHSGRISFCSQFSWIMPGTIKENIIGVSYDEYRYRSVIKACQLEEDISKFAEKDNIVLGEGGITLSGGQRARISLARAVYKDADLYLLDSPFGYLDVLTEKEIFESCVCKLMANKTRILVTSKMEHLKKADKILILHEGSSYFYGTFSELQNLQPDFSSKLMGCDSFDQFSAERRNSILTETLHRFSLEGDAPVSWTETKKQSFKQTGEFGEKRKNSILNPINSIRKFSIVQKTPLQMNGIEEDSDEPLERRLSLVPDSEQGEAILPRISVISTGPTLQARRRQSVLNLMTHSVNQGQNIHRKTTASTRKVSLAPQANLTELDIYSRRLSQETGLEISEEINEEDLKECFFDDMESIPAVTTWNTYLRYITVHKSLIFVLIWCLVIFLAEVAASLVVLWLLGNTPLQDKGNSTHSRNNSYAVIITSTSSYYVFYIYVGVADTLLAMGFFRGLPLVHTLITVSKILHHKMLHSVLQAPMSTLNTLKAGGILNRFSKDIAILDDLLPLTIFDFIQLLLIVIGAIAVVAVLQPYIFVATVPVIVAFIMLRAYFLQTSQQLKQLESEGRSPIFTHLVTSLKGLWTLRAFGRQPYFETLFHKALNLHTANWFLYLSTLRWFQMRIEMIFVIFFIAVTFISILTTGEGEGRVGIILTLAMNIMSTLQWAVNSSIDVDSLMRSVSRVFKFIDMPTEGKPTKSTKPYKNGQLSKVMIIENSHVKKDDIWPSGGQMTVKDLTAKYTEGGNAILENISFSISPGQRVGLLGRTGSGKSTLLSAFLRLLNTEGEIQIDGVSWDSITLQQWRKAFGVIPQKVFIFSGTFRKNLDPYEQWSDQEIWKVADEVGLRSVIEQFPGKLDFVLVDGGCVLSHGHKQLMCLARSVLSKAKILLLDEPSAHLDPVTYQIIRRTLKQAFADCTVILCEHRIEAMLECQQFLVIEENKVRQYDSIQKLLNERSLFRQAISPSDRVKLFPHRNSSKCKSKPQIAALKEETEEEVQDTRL
# Source text: CFTR activity can be quantified by measuring the transmembrane potential. The means for measuring the transmembrane potential in a biological system can employ a number of methods including electrophysiological and optical fluorescence-based membrane potential assays.
# The optical membrane potential assay utilises a negatively charged potentiometric dye, such as the FLIPR membrane potential dye (FMP) (see Baxter D F, Kirk M, Garcia A F, Raimondi A, Holmqvist M H, Flint K K, Bojanic D, Distefano P S, Curtis R, Xie Y. ‘A novel membrane potential-sensitive fluorescent dye improves cell-based assays for ion channels.’ J Biomol Screen. 2002 February; 7(1):79-85) which when extracellular is bound to a quenching agent.
# Upon cellular depolarisation the negatively charged dye redistributes to the intracellular compartment, unbinding from the membrane impermeant quench agent, yielding an increase in fluorescence. This change in fluorescence is proportional to the change in transmembrane potential which can result from the activity of CFTR. The changes in fluorescence can be monitored in real time by an appropriately equipped fluorescence detector such as the FLIPR (fluorometric imaging plate reader) in 96 or 384-well microtitre plates.
# Chinese hamster ovary (CHO) cells stably expressing the AF508-CFTR channel were used for membrane potential experiments. Cells were maintained at 37° C. in 5% v/v CO2 at 100% humidity in Modified Eagles medium (MEM) supplemented with 8% v/v foetal calf serum, 100 μg/ml methotrexate and 100 U/ml penicillin/streptomycin. Cells were grown in 225 cm^2 tissue culture flasks. For membrane potential assays cells were seeded into 96 well plates at 40,000 cells per well, allowed to adhere and then maintained at 26° C. for 48 h to facilitate channel insertion.
# The membrane potential screening assay utilised a low chloride ion containing extracellular solution (˜5 mM) combined with a double addition protocol. The first addition was of buffer with or without test compound followed 5 minutes later by an addition of forskolin (1-20 μM)—this protocol favours maximum chloride efflux in response to ΔF508-CFTR activation. The ΔF508-CFTR mediated chloride ion efflux leads to a membrane depolarisation which is optically monitored by the FMP dye.
# Low chloride extracellular (mM): 120 Na-gluconate, 1.2 CaCl2), 3.3 KH2PO4, 0.8 K2HPO4, 1.2 MgCl2, 10.0 D-glucose, 20.0 HEPES, pH 7.4 with NaOH FMP dye: made up as per manufacturers' instructions in low chloride extracellular solution detailed above, at 10× final concentration, and stored as 1 mL aliquots at −20° C.
# CFTR activity can also be quantified electrophysiologically using the whole-cell configuration of the patch clamp technique (Hamill et al Pflugers Archive 1981). This assay directly measures the currents associated with chloride flow through CFTR channels whilst either maintaining or adjusting the transmembrane voltage. This assay can use either single glass micropipettes or parallel planar arrays to measure CFTR activity from native or recombinant cell systems. Currents measured using parallel planar arrays can be quantified using an appropriately equipped instrument such as the IonWorks Quattro (Molecular Devices) or the Qpatch (Sophion). The Quattro system can measure CFTR currents from either a single cell per recording well (HT configuration) or alternatively from a population of 64 cells per well (Population Patch Clamp PPC) (Finkel A, Wittel A, Yang N, Handran S, Hughes J, Costantin J. ‘Population patch clamp improves data consistency and success rates in the measurement of ionic currents.’ J Biomol Screen. 2006 August; 11(5):488-96).
# Chinese hamster ovary (CHO) cells stably expressing the ΔF508-CFTR channel were used for IonWorks Quattro experiments. […]
# [5] = molecular target: UGT2B7 (Homo sapiens (Human), UniProt P16662); assay: in vitro inhibition of UGT2B7; type: in vitro ADME
# Chain of UGT2B7 (P16662 24-529): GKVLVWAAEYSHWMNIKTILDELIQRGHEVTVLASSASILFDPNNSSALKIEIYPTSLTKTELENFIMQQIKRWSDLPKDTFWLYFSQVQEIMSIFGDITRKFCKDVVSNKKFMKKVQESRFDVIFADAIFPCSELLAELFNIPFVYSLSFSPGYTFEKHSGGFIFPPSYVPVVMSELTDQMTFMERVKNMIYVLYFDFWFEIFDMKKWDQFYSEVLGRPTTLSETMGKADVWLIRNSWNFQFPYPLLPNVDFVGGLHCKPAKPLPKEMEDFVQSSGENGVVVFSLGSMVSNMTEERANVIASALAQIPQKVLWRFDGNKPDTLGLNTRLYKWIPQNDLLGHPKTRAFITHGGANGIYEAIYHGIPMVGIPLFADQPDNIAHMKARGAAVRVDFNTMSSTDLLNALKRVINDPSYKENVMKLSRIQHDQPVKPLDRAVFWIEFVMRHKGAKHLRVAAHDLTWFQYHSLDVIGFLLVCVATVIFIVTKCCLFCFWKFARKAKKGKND
# [6] = molecular target: BCRP (Homo sapiens (Human), UniProt Q9UNQ0); assay: in vitro inhibition of BCRP; type: in vitro ADME
# Chain of BCRP (Q9UNQ0 whole entry): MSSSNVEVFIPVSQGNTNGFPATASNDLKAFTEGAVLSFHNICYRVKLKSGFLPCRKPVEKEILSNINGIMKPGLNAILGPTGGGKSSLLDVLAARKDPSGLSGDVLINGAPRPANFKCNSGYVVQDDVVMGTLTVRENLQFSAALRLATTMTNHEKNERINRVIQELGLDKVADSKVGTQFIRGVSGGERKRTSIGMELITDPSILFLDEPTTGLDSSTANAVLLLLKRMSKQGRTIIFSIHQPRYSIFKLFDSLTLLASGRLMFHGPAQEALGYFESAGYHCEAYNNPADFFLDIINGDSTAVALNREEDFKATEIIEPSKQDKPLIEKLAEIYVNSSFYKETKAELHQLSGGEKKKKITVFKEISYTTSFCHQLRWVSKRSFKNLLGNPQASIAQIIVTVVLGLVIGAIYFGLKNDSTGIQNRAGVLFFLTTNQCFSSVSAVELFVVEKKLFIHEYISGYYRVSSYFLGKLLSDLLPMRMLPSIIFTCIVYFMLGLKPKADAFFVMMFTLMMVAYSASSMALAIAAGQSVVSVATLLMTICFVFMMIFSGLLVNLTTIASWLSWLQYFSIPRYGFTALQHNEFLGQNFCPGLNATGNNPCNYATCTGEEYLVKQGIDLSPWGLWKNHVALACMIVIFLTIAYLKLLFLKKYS
# [7] = molecular target: OATP1B1 (Homo sapiens (Human), UniProt Q9Y6L6); assay: in vitro inhibition of OATP1B1; type: in vitro ADME
# Chain of OATP1B1 (Q9Y6L6 whole entry): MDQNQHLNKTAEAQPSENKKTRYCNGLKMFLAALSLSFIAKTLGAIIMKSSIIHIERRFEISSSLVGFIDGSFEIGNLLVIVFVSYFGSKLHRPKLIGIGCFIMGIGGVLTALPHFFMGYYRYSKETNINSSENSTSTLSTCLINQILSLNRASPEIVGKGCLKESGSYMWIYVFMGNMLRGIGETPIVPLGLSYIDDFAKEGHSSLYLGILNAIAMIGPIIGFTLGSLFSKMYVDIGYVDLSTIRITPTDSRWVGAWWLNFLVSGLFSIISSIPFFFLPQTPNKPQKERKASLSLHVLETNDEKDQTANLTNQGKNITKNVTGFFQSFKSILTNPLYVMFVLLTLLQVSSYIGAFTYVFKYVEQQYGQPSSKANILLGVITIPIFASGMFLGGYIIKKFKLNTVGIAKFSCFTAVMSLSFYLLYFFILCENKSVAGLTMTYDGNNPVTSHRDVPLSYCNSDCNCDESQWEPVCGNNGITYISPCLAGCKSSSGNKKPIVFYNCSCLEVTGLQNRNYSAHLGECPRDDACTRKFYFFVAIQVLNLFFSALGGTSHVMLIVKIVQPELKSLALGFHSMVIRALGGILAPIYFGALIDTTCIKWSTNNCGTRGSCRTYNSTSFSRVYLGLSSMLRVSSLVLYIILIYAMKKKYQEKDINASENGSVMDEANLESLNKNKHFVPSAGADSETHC
# [8] = system: COPD patients; assay: Phase II study of Compound A in COPD patients: fibrinogen levels in blood; type: in vivo, human; parameters: fibrinogen change from baseline, mean / fibrinogen change from baseline, minimum / fibrinogen change from baseline, median / fibrinogen change from baseline, maximum: unit not given here; details: for fibrinogen change from baseline, maximum / fibrinogen change from baseline, mean / fibrinogen change from baseline, median / fibrinogen change from baseline, minimum: value in brackets
# Protocol: Patients were randomized and stratified by smoking status (former vs current smokers). The double-blind placebo-controlled treatment period was 28 days (Day 1 to Day 28) and included visits on Days 1, 14 and 28. Eligible patients were randomized in a 2:1 ratio to receive 300 mg b.i.d. of Compound A or matching placebo for 28 consecutive days. Of note, the first 4 patients enrolled randomized in this study received 450 mg b.i.d. of Compound A or placebo, prior to an amendment reducing the dose and thereafter the dose was reduced to 300 mg b.i.d. of Compound A. The single-blind placebo-controlled follow-up period was 28 days. The follow-up period included a visit on Day 29 for key primary and secondary objective efficacy assessments, weekly follow-up contact via telephone, and an End-of-Study (EOS) visit on Day 56.
# Blood samples were collected from patients for the analysis of fibrinogen.
# [9] = BAS (baseline) visit, 300 mg bid group
# [10] = SCR (screening) visit, 300 mg bid group
structure (smiles),measurement,setting,value
"COc1nc(C(=O)NC[C@](C)(O)C(F)(F)F)c(N)cc1C(F)(F)F (single isomer, unassigned) [Example 5]",half-life,[1]; in vivo,10 to 16 h
same,"trough concentration (Cmin,ss) corresponding to AUC0-24 h,ss of 91,700 ng*h/ml","[1]; regression of Cmin,ss against AUC0-24 h,ss",3000 ng/mL
same,effect on CYP3A4/5,[2],time dependent inhibitor and inducer
same,effect on co-medications mainly metabolized by CYP2B6,[3],induce
same,pEC50,[4],7.30
same,inhibition of UGT2B7,[5],Weak in vitro inhibition
same,inhibition of BCRP,[6],Weak in vitro inhibition
same,inhibition of OATP1B1,[7],Weak in vitro inhibition
same,"fibrinogen level, maximum",[8]; [9],4.9 g/L
same,"fibrinogen level, mean",[8]; [9],3.28 g/L
same,"fibrinogen level, median",[8]; [9],3.16 g/L
same,"fibrinogen level, minimum",[8]; [9],2 g/L
same,"fibrinogen level, maximum","[8]; D14, 300 mg bid",4.4 g/L
same,"fibrinogen level, mean","[8]; D14, 300 mg bid",3.1 g/L
same,"fibrinogen level, median","[8]; D14, 300 mg bid",3.03 g/L
same,"fibrinogen level, minimum","[8]; D14, 300 mg bid",1.6 g/L
same,"fibrinogen change from baseline, maximum","[8]; D14, 300 mg bid",1.7
same,"fibrinogen change from baseline, mean","[8]; D14, 300 mg bid",−0.18
same,"fibrinogen change from baseline, median","[8]; D14, 300 mg bid",−0.20
same,"fibrinogen change from baseline, minimum","[8]; D14, 300 mg bid",−1.7
same,"fibrinogen level, maximum","[8]; D29, 300 mg bid",4.4 g/L
same,"fibrinogen level, mean","[8]; D29, 300 mg bid",3.02 g/L
same,"fibrinogen level, median","[8]; D29, 300 mg bid",2.98 g/L
same,"fibrinogen level, minimum","[8]; D29, 300 mg bid",1.6 g/L
same,"fibrinogen change from baseline, maximum","[8]; D29, 300 mg bid",1.3
same,"fibrinogen change from baseline, mean","[8]; D29, 300 mg bid",−0.24
same,"fibrinogen change from baseline, median","[8]; D29, 300 mg bid",−0.17
same,"fibrinogen change from baseline, minimum","[8]; D29, 300 mg bid",−1.8
same,mean change from baseline over time for fibrinogen (FIG. 1),[8]; Day 14 and 29 during treatment period,decrease of fibrinogen levels
same,estimated difference (Compound A to placebo) in mean change from baseline fibrinogen,"[8]; Day 29, 300 mg bid for 28 days, 90% CI −0.65, −0.14, p-value=0.006",-0.40 g/L
same,Fibrinogen mean improvement over placebo,"[8]; Day 29, p-value=0.006",40 mg/dL
same,"fibrinogen level, mean","[8]; EOS (Day 56, 28 days after last dose), 300 mg bid",3.24 g/L
same,"fibrinogen level, maximum","[8]; EOS, 300 mg bid",6.6 g/L
same,"fibrinogen level, median","[8]; EOS, 300 mg bid",3.16 g/L
same,"fibrinogen level, minimum","[8]; EOS, 300 mg bid",2 g/L
same,"fibrinogen change from baseline, maximum","[8]; EOS, 300 mg bid",3.0
same,"fibrinogen change from baseline, mean","[8]; EOS, 300 mg bid",−0.03
same,"fibrinogen change from baseline, median","[8]; EOS, 300 mg bid",−0.11
same,"fibrinogen change from baseline, minimum","[8]; EOS, 300 mg bid",−1.7
same,"fibrinogen level, maximum",[8]; [10],4.9 g/L
same,"fibrinogen level, mean",[8]; [10],3.03 g/L
same,"fibrinogen level, median",[8]; [10],3 g/L
same,"fibrinogen level, minimum",[8]; [10],1.1 g/L
